Key:
Type in all cases: functional, cell-based
HeLa = assay: Antiproliferative activity against human HeLa cells after 72 hrs MTT assay
[1] = Antiproliferative activity against human SF763 cells after 72 hrs MTT assay; conditions: SF763, 72 h
[2] = Antiproliferative activity against human HL60 cells after 72 hrs MTT assay; conditions: HL-60, 72 h
[3] = Antiproliferative activity against human Bel7402 cells after 72 hrs MTT assay; conditions: Bel-7402, 72 h
B16 = assay: Antiproliferative activity against mouse B16 cells after 72 hrs MTT assay; conditions: B16, 72 h

Compound	IC50 (HeLa)	IC50 [1]	IC50 [2]	IC50 [3]	IC50 (B16)
C=C(C)[C@@H]1CC[C@]2(C(=O)O)CC[C@]3(C)[C@H](CC[C@@H]4[C@@]5(C)C[C@H](CO)[C@H](O)[C@@](C)(CO)[C@@H]5CC[C@]43C)[C@@H]12	70.8 µM	50.2 µM	69 µM	59.1 µM	47.9 µM
C=C(C)[C@@H]1CC[C@]2(C(=O)O)CC[C@]3(C)[C@H](CC[C@@H]4[C@@]5(C)C[C@H](COC(C)=O)[C@H](OC(C)=O)[C@@](C)(COC(C)=O)[C@@H]5CC[C@]43C)[C@@H]12	61.5 µM	46.1 µM	59.9 µM	50.2 µM	39 µM
C=C(C)[C@@H]1CC[C@]2(C(=O)OCc3ccccc3)CC[C@]3(C)[C@H](CC[C@@H]4[C@@]5(C)C[C@H](CO)[C@H](O)[C@@](C)(CO)[C@@H]5CC[C@]43C)[C@@H]12	51.4 µM	39.1 µM	47.9 µM	41.7 µM	30.5 µM
C=C(C)[C@@H]1CC[C@]2(C(=O)O)CC[C@]3(C)[C@H](CC[C@@H]4[C@@]5(C)C[C@H](O)[C@H](O)[C@@](C)(CO)[C@@H]5CC[C@]43C)[C@@H]12	67.8 µM	53.9 µM	66.3 µM	56.8 µM	36.9 µM
C=C(C)[C@@H]1CC[C@]2(C(=O)O)CC[C@]3(C)[C@H](CC[C@@H]4[C@@]5(C)C[C@H](OC(C)=O)[C@H](OC(C)=O)[C@@](C)(COC(C)=O)[C@@H]5CC[C@]43C)[C@@H]12	59.1 µM	45.8 µM	58.1 µM	49.6 µM	30.5 µM
C=C(C)[C@@H]1CC[C@]2(C(=O)OCc3ccccc3)CC[C@]3(C)[C@H](CC[C@@H]4[C@@]5(C)C[C@H](OC(C)=O)[C@H](OC(C)=O)[C@@](C)(COC(C)=O)[C@@H]5CC[C@]43C)[C@@H]12	46 µM	32.1 µM	46.1 µM	34.5 µM	21.6 µM
C=C(C)[C@@H]1CC[C@]2(C(=O)OCc3ccccc3)CC[C@]3(C)[C@H](CC[C@@H]4[C@@]5(C)C[C@H](O)[C@H](O)[C@@](C)(CO)[C@@H]5CC[C@]43C)[C@@H]12	50.4 µM	33.5 µM	49.9 µM	39.6 µM	26.4 µM
C=C(C)[C@@H]1CC[C@]2(C(=O)O)CC[C@]3(C)[C@H](CC[C@@H]4[C@@]5(C)C=C(O)C(=O)[C@@](C)(CO)[C@@H]5CC[C@]43C)[C@@H]12	20 µM	14.3 µM	22 µM	19.6 µM	11.3 µM
C=C(C)[C@@H]1CC[C@]2(C(=O)O)CC[C@]3(C)[C@H](CC[C@@H]4[C@@]5(C)C=C(OC(C)=O)C(=O)[C@@](C)(COC(C)=O)[C@@H]5CC[C@]43C)[C@@H]12	24.1 µM	18.9 µM	29.8 µM	25.4 µM	15 µM
C=C(C)[C@@H]1CC[C@]2(C(=O)Oc3ccc(C#N)cc3)CC[C@]3(C)[C@H](CC[C@@H]4[C@@]5(C)CCC(=O)[C@@](C)(COC(C)=O)[C@@H]5CC[C@]43C)[C@@H]12	11.7 µM	9.11 µM	11.6 µM	9.23 µM	9.02 µM
C=C(C)[C@@H]1CC[C@]2(C(=O)NCC(=O)OC)CC[C@]3(C)[C@H](CC[C@@H]4[C@@]5(C)CCC(=O)[C@@](C)(COC(C)=O)[C@@H]5CC[C@]43C)[C@@H]12	17.1 µM	13.6 µM	19.2 µM	15.6 µM	10.7 µM
C=C(C)[C@@H]1CC[C@]2(C(=O)OCCO)CC[C@]3(C)[C@H](CC[C@@H]4[C@@]5(C)CCC(=O)[C@@](C)(COC(C)=O)[C@@H]5CC[C@]43C)[C@@H]12	24.4 µM	22.1 µM	31.1 µM	27.4 µM	18.1 µM
C=C(C)[C@@H]1CC[C@]2(C(=O)N3CCOCC3)CC[C@]3(C)[C@H](CC[C@@H]4[C@@]5(C)CCC(=O)[C@@](C)(COC(C)=O)[C@@H]5CC[C@]43C)[C@@H]12	10.3 µM	10.1 µM	12.1 µM	10.5 µM	8.16 µM
C=C(C)[C@@H]1CC[C@]2(C(=O)O)CC[C@]3(C)[C@H](CC[C@@H]4[C@@]5(C)CCC(=O)[C@@](C)(COC(C)=O)[C@@H]5CC[C@]43C)[C@@H]12	32.1 µM	28.9 µM	30.2 µM	29.4 µM	17.1 µM
C=C(C)[C@@H]1CC[C@]2(C(=O)O[C@@H]3O[C@H](CO)[C@@H](O)[C@H](O)[C@H]3O)CC[C@]3(C)[C@H](CC[C@@H]4[C@@]5(C)CCC(=O)[C@@](C)(CO)[C@@H]5CC[C@]43C)[C@@H]12	31 µM	21.4 µM	26.6 µM	22.1 µM	14.7 µM
C=CCOC(=O)[C@]12CC[C@@H](C(=C)C)[C@@H]1[C@H]1CC[C@@H]3[C@@]4(C)CCC(=O)[C@@](C)(CO)[C@@H]4CC[C@@]3(C)[C@]1(C)CC2	22.8 µM	15.1 µM	21.8 µM	19 µM	11.8 µM
C=C(C)[C@@H]1CC[C@]2(C(=O)OCc3ccc(-c4ccccc4C#N)cc3)CC[C@]3(C)[C@H](CC[C@@H]4[C@@]5(C)CCC(=O)[C@@](C)(CO)[C@@H]5CC[C@]43C)[C@@H]12	15.2 µM	10.1 µM	14.3 µM	10.3 µM	10 µM
C=C(C)[C@@H]1CC[C@]2(C(=O)OCC)CC[C@]3(C)[C@H](CC[C@@H]4[C@@]5(C)CCC(=O)[C@@](C)(CO)[C@@H]5CC[C@]43C)[C@@H]12	37.1 µM	28.9 µM	31.9 µM	30.9 µM	19.4 µM
C=C(C)[C@@H]1CC[C@]2(C(=O)OCC(=O)OCC)CC[C@]3(C)[C@H](CC[C@@H]4[C@@]5(C)CCC(=O)[C@@](C)(CO)[C@@H]5CC[C@]43C)[C@@H]12	40.8 µM	24.7 µM	37.1 µM	30.7 µM	25.7 µM
C=C(C)[C@@H]1CC[C@]2(C(=O)OCc3ccccc3)CC[C@]3(C)[C@H](CC[C@@H]4[C@@]5(C)CCC(=O)[C@@](C)(CO)[C@@H]5CC[C@]43C)[C@@H]12	26.1 µM	19.5 µM	23.7 µM	20.1 µM	14.1 µM
C=C(C)[C@@H]1CC[C@]2(C(=O)O)CC[C@]3(C)[C@H](CC[C@@H]4[C@@]5(C)CC/C(=N\O)[C@@](C)(CO)[C@@H]5CC[C@]43C)[C@@H]12	40.8 µM	31.8 µM	36.9 µM	32.1 µM	23.8 µM
C=C(C)[C@@H]1CC[C@]2(C(=O)O)CC[C@]3(C)[C@H](CC[C@@H]4[C@@]5(C)CC/C(=N\NS(=O)(=O)c6ccc(C)cc6)[C@@](C)(CO)[C@@H]5CC[C@]43C)[C@@H]12	44.3 µM	25.2 µM	46.3 µM	39.4 µM	33.3 µM
C=C(C)[C@@H]1CC[C@]2(C(=O)OCc3ccccc3)CC[C@]3(C)[C@H](CC[C@@H]4[C@@]5(C)CC/C(=N\NS(=O)(=O)c6ccc(C)cc6)[C@@](C)(CO)[C@@H]5CC[C@]43C)[C@@H]12	21.9 µM	18.4 µM	29.1 µM	26.4 µM	16.2 µM
C=C(C)[C@@H]1CC[C@]2(C(=O)OCC(=O)OCC)CC[C@]3(C)[C@H](CC[C@@H]4[C@@]5(C)CC/C(=N\O)[C@@](C)(CO)[C@@H]5CC[C@]43C)[C@@H]12	30 µM	26.1 µM	33.7 µM	30.6 µM	17.8 µM
C=C(C)[C@@H]1CC[C@]2(C(=O)OCC(=O)O)CC[C@]3(C)[C@H](CC[C@@H]4[C@@]5(C)CC/C(=N\O)[C@@](C)(CO)[C@@H]5CC[C@]43C)[C@@H]12	23.8 µM	17.5 µM	30.5 µM	27.2 µM	17.4 µM
C=C(C)[C@@H]1CC[C@]2(C(=O)OCC)CC[C@]3(C)[C@H](CC[C@@H]4[C@@]5(C)CC/C(=N\O)[C@@](C)(CO)[C@@H]5CC[C@]43C)[C@@H]12	31.7 µM	28.6 µM	31.6 µM	30.8 µM	17.6 µM
C=CCOC(=O)[C@]12CC[C@@H](C(=C)C)[C@@H]1[C@H]1CC[C@@H]3[C@@]4(C)CC/C(=N\O)[C@@](C)(CO)[C@@H]4CC[C@@]3(C)[C@]1(C)CC2	25 µM	15.5 µM	24.1 µM	22.6 µM	13.1 µM
COc1cccc2c1C(=O)c1c(O)c3c(c(O)c1C2=O)C[C@@](O)(C(=O)CO)C[C@@H]3O[C@H]1C[C@H](N)[C@H](O)[C@H](C)O1 [DOXORUBICIN]	0.21 µM	–	–	0.22 µM	0.18 µM
